Reference: patent publication US6737383B1, “Herbicidal oxadiazolidines” (priority 1999, dated 2004)

Key:
cocklebur = test: Test B pre/postemergence cocklebur; type: in vivo, Xanthium strumarium
How it was run: (§1)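 Test chemicals in a non-phytotoxic solvent mixture with surfactant were sprayed preemergence onto planted seeds and postemergence onto plants 2 to 18 cm tall (1- to 4-leaf stage). After twelve to sixteen days in a greenhouse, injury was visually rated against untreated controls from 0 (no effect) to 10 (complete control).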

pigweed = test: Test B pre/postemergence pigweed; type: in vivo, Amaranthus retroflexus
How it was run: as §1

corn = test: Test B pre/postemergence corn; type: in vivo, Zea mays
How it was run: as §1

crabgrass = test: Test B pre/postemergence crabgrass; type: in vivo, Digitaria sanguinalis
How it was run: as §1

blackgrass = test: Test B pre/postemergence blackgrass; type: in vivo, Alopecurus myosuroides
How it was run: as §1

bedstraw = test: Test B pre/postemergence bedstraw; type: in vivo, Galium aparine
How it was run: as §1

velvetleaf = test: Test B pre/postemergence velvetleaf; type: in vivo, Abutilon theophrasti
How it was run: as §1

morningglory = test: Test B pre/postemergence morningglory; type: in vivo, Ipomoea hederacea
How it was run: as §1

rice = test: Test B flood test rice; type: in vivo, Oryza sativa
How it was run: (§2)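 Flood test on plants grown to the 2-leaf stage; treated plants kept in greenhouse twelve to sixteen days, then visually rated against controls on a 0 (no effect) to 10 (complete control) scale.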

duck salad = test: Test B flood test duck salad; type: in vivo, Heteranthera limosa
How it was run: as §2

rape = test: Test B pre/postemergence rape; type: in vivo, Brassica napus
How it was run: as §1

soybean = test: Test B pre/postemergence soybean; type: in vivo, Glycine max
How it was run: as §1

wild oat = test: Test B pre/postemergence wild oat; type: in vivo, Avena fatua
How it was run: as §1

purple nutsedge = test: Test B pre/postemergence purple nutsedge; type: in vivo, Cyperus rotundus
How it was run: as §1

sugar beet = test: Test B pre/postemergence sugar beet; type: in vivo, Beta vulgaris
How it was run: as §1

giant foxtail = test: Test B pre/postemergence giant foxtail; type: in vivo, Setaria faberii
How it was run: as §1

surinam grass = test: Test B pre/postemergence surinam grass; type: in vivo, Brachiaria decumbens
How it was run: as §1

bamyardgrass = test: Test B flood test barnyardgrass; type: in vivo, Echinochloa crus-galli
How it was run: as §2

wheat = test: Test B pre/postemergence wheat; type: in vivo, Triticum aestivum
How it was run: as §1

smallflower flatsedge = test: Test B flood test smallflower flatsedge; type: in vivo, Cyperus difformis
How it was run: as §2

[1] = Postemergence, Rate 125 g/ha, scale 0 to 10, 0 is no effect, 10 is complete control
[2] = Postemergence, Rate 250 g/ha, scale 0 to 10
[3] = Postemergence, Rate 500 g/ha, scale 0 to 10, 0 is no effect, 10 is complete control
[4] = Preemergence, Rate 62 g/ha, scale of 0 to 10 where 0 is no effect and 10 is complete control
[5] = Preemergence, Rate 125 g/ha, scale 0 to 10, 0 is no effect, 10 is complete control
[6] = Preemergence, Rate 250 g/ha, scale 0 to 10, 0 is no effect, 10 is complete control
[7] = Preemergence, Rate 500 g/ha, scale of 0 to 10 where 0 is no effect and 10 is complete control
[8] = Rate 62 g/ha, Postemergence, scale 0 to 10 (0 no effect, 10 complete control)
[9] = Preemergence, Rate 500 g/ha, scale 0 to 10, 0 is no effect, 10 is complete control
[10] = Rate 62 g/ha, flood test species, Pre-emergence, visual evaluation after twelve to sixteen days
[11] = Rate 125 g/ha, under heading Pre-emergence, flood test species, visual evaluation after twelve to sixteen days
[12] = Rate 250 g/ha, Pre-emergence (flood test species), scale 0 to 10, 0 is no effect, 10 is complete control
[13] = Rate 500 g/ha, Pre-emergence section of Table B, 0 to 10 scale (0 no effect, 10 complete control)

In the case of `CC(C)N(C(=O)n1oc(=O)n(CC2=NCCCO2)c1=O)c1ccccc1` [Compound 494], the “Cocklebur plant response rating” value (cocklebur; [1]) is reported as 0, the “Cocklebur plant response rating” value (cocklebur; [2]) is reported as 0 and the “Plant response rating, Cocklebur” value (cocklebur; [3]) is reported as 0. For the same compound, the “Plant response rating, Cocklebur” value (cocklebur; [4]) was 0, the “Cocklebur plant response rating” value (cocklebur; [5]) was 0 and the “Cocklebur plant response rating” value (cocklebur; [6]) was 0. The “Cocklebur plant response rating” value (cocklebur; [7]) was 0, the “Cocklebur plant response rating” value (cocklebur; [8]) was 0 and the “Redroot pigweed plant response rating” value (pigweed; [1]) was 0. For the same compound, the “Plant response rating, Redroot pigweed” value (pigweed; [3]) was 0, the “Plant response rating, Redroot pigweed” value (pigweed; [4]) was 0 and the “Redroot pigweed plant response rating” value (pigweed; [5]) was 0. The “Redroot pigweed plant response rating” value (pigweed; [7]) was 0, the “Redroot pigweed plant response rating” value (pigweed; [8]) was 0 and the “Corn plant response rating” value (corn; [1]) was 0. For the same compound, the “Corn plant response rating” value (corn; [2]) was 0, the “Plant response rating, Corn” value (corn; [3]) was 0 and the “Plant response rating, Corn” value (corn; [4]) was 0. The “Corn plant response rating” value (corn; [5]) was 0, the “Corn plant response rating” value (corn; [7]) was 0 and the “Corn plant response rating” value (corn; [8]) was 0. The “Crabgrass plant response rating” value (crabgrass; [1]) was 0, the “Plant response rating, Crabgrass” value (crabgrass; [4]) was 0 and the “Crabgrass plant response rating” value (crabgrass; [5]) was 0. The “Crabgrass plant response rating” value (crabgrass; [7]) was 0, the “Crabgrass plant response rating” value (crabgrass; [8]) was 0 and the “Blackgrass plant response rating” value (blackgrass; [1]) was 0. The “Blackgrass plant response rating” value (blackgrass; [2]) was 0, the “Plant response rating, Blackgrass” value (blackgrass; [3]) was 0 and the “Plant response rating, Blackgrass” value (blackgrass; [4]) was 0. The “Blackgrass plant response rating” value (blackgrass; [5]) was 0, the “Blackgrass plant response rating” value (blackgrass; [6]) was 0 and the “Blackgrass plant response rating” value (blackgrass; [7]) was 0. The “Blackgrass plant response rating” value (blackgrass; [8]) was 0, the “Plant response rating, Bedstraw” value (bedstraw; [4]) was 0 and the “Bedstraw plant response rating” value (bedstraw; [5]) was 0. The “Bedstraw plant response rating” value (bedstraw; [6]) was 0, the “Bedstraw plant response rating” value (bedstraw; [9]) was 0 and the “Bedstraw plant response rating” value (bedstraw; [8]) was 0. For the same compound, the “Velvetleaf plant response rating” value (velvetleaf; [1]) was 0, the “Plant response rating, Velvetleaf” value (velvetleaf; [3]) was 0 and the “Plant response rating, Velvetleaf” value (velvetleaf; [4]) was 0. The “Velvetleaf plant response rating” value (velvetleaf; [5]) was 0, the “Velvetleaf plant response rating” value (velvetleaf; [7]) was 0 and the “Velvetleaf plant response rating” value (velvetleaf; [8]) was 0. For the same compound, the “Morningglory plant response rating” value (morningglory; [1]) was 0, the “Plant response rating, Morningglory” value (morningglory; [3]) was 0 and the “Plant response rating, Morningglory” value (morningglory; [4]) was 0. For the same compound, the “Morningglory plant response rating” value (morningglory; [5]) was 0, the “Morningglory plant response rating” value (morningglory; [7]) was 0 and the “Morningglory plant response rating” value (morningglory; [8]) was 0. The “Plant response rating, Rice (0 to 10 scale, 0 is no effect, 10 is complete control)” value (rice; [10]) was 0, the “Rice plant response rating (0 to 10 scale, 0 is no effect, 10 is complete control)” value (rice; [11]) was 0 and the “Rice plant response rating” value (rice; [12]) was 0. For the same compound, the “Rice plant response rating” value (rice; [13]) was 0, the “Plant response rating, Ducksalad (0 to 10 scale, 0 is no effect, 10 is complete control)” value (duck salad; [10]) was 0 and the “Ducksalad plant response rating (0 to 10 scale, 0 is no effect, 10 is complete control)” value (duck salad; [11]) was 0. For the same compound, the “Ducksalad plant response rating” value (duck salad; [12]) was 0, the “Ducksalad plant response rating” value (duck salad; [13]) was 0 and the “Rape plant response rating” value (rape; [1]) was 0. The “Plant response rating, Rape” value (rape; [3]) was 0, the “Plant response rating, Rape” value (rape; [4]) was 0 and the “Rape plant response rating” value (rape; [5]) was 0. For the same compound, the “Rape plant response rating” value (rape; [7]) was 0, the “Rape plant response rating” value (rape; [8]) was 0 and the “Soybean plant response rating” value (soybean; [1]) was 0. For the same compound, the “Plant response rating, Soybean” value (soybean; [3]) was 1, the “Plant response rating, Soybean” value (soybean; [4]) was 0 and the “Soybean plant response rating” value (soybean; [5]) was 1. The “Soybean plant response rating” value (soybean; [7]) was 1, the “Soybean plant response rating” value (soybean; [8]) was 0 and the “Wild oats plant response rating” value (wild oat; [1]) was 0. The “Plant response rating, Wild oats” value (wild oat; [3]) was 0, the “Plant response rating, Wild oats” value (wild oat; [4]) was 0 and the “Wild oats plant response rating” value (wild oat; [5]) was 0. The “Wild oats plant response rating” value (wild oat; [7]) was 0, the “Wild oats plant response rating” value (wild oat; [8]) was 0 and the “Nutsedge plant response rating” value (purple nutsedge; [1]) was 0. For the same compound, the “Plant response rating, Nutsedge” value (purple nutsedge; [3]) was 0, the “Plant response rating, Nutsedge” value (purple nutsedge; [4]) was 0 and the “Nutsedge plant response rating” value (purple nutsedge; [5]) was 0. For the same compound, the “Nutsedge plant response rating” value (purple nutsedge; [7]) was 0, the “Nutsedge plant response rating” value (purple nutsedge; [8]) was 0 and the “Sugarbeets plant response rating” value (sugar beet; [1]) was 0. For the same compound, the “Plant response rating, Sugarbeets” value (sugar beet; [3]) was 0, the “Plant response rating, Sugarbeets” value (sugar beet; [4]) was 0 and the “Sugarbeets plant response rating” value (sugar beet; [5]) was 0. The “Sugarbeets plant response rating” value (sugar beet; [7]) was 0, the “Sugarbeets plant response rating” value (sugar beet; [8]) was 0 and the “Giant foxtail plant response rating” value (giant foxtail; [1]) was 0. For the same compound, the “Plant response rating, Giant foxtail” value (giant foxtail; [3]) was 0, the “Plant response rating, Giant foxtail” value (giant foxtail; [4]) was 0 and the “Giant foxtail plant response rating” value (giant foxtail; [5]) was 0. The “Giant foxtail plant response rating” value (giant foxtail; [7]) was 0, the “Giant foxtail plant response rating” value (giant foxtail; [8]) was 0 and the “B. signalgrass plant response rating” value (surinam grass; [1]) was 0. For the same compound, the “B. signalgrass plant response rating” value (surinam grass; Postemergence, Rate 250 g/ha, scale 0 to 10, 0 no effect, 10 complete control) was 0, the “Plant response rating, B. signalgrass” value (surinam grass; [3]) was 0 and the “Plant response rating, B. signalgrass” value (surinam grass; [4]) was 0. The “B. signalgrass plant response rating” value (surinam grass; [5]) was 0, the “B. signalgrass plant response rating” value (surinam grass; [6]) was 0 and the “B. signalgrass plant response rating” value (surinam grass; [9]) was 0. For the same compound, the “B. signalgrass plant response rating” value (surinam grass; [8]) was 0, the “Plant response rating, Barnyardgrass (0 to 10 scale, 0 is no effect, 10 is complete control)” value (bamyardgrass; [10]) was 0 and the “Barnyardgrass plant response rating (0 to 10 scale, 0 is no effect, 10 is complete control)” value (bamyardgrass; [11]) was 0. For the same compound, the “Barnyardgrass plant response rating” value (bamyardgrass; [12]) was 0, the “Barnyardgrass plant response rating” value (bamyardgrass; [13]) was 0 and the “Wheat plant response rating” value (wheat; [1]) was 0. For the same compound, the “Plant response rating, Wheat” value (wheat; [3]) was 0, the “Plant response rating, Wheat” value (wheat; [4]) was 0 and the “Wheat plant response rating” value (wheat; [5]) was 0. For the same compound, the “Wheat plant response rating” value (wheat; [7]) was 0, the “Wheat plant response rating” value (wheat; [8]) was 0 and the “Plant response rating, S. Flatsedge (0 to 10 scale, 0 is no effect, 10 is complete control)” value (smallflower flatsedge; [10]) was 0. The “S. Flatsedge plant response rating (0 to 10 scale, 0 is no effect, 10 is complete control)” value (smallflower flatsedge; [11]) was 0, the “S. Flatsedge plant response rating” value (smallflower flatsedge; [12]) was 0 and the “S. Flatsedge plant response rating” value (smallflower flatsedge; [13]) was 0.
